We go through two compounds from ChEMBL document CHEMBL5303573, “Mapping human microbiome drug metabolism by gut bacteria and their genes” (Nature, 2019).

SMILES strings stand for the structures.

A short description of one data set: The drug is tested on Collinsella intestinalis strain: DSM13280 for biotransformation. The drug concentrations were measured before and after a 12-h incubation by liquid-chromatography-coupled mass spectrometry (LC–MS). Conditions: 2 µM.
For `CC(C)(C)NC(=O)[C@H]1CC[C@H]2[C@@H]3CC[C@H]4NC(=O)C=C[C@]4(C)[C@H]3CC[C@]12C` [FINASTERIDE], the “Bacterial Biotransformation” value was “Compound NOT metabolized”.

The conditions of another data set: bacteroides stercoris, 12 h, 2 µM.
Description: The drug is tested on Bacteroides stercoris strain: ATCC43183 for biotransformation. The drug concentrations were measured before and after a 12-h incubation by liquid-chromatography-coupled mass spectrometry (LC–MS)
On to `CC(C)(C)NC(=O)[C@H]1CC[C@H]2[C@@H]3CC[C@H]4NC(=O)C=C[C@]4(C)[C@H]3CC[C@]12C` [FINASTERIDE], for which the “Bacterial Biotransformation” value is “Compound NOT metabolized”.

For the compound `CC(C)c1c(CN(C)C(C)Cc2ccccc2)n(C)n(-c2ccccc2)c1=O` (centres undefined) [FAMPROFAZONE], the “Bacterial Biotransformation” value is given as “Compound metabolized”.

The nature of a further data set: The drug is tested on Bacteroides coprophilus strain: DSM18228 for biotransformation. The drug concentrations were measured before and after a 12-h incubation by liquid-chromatography-coupled mass spectrometry (LC–MS). The following applies: 2 µM.
In the case of `CC(C)(C)NC(=O)[C@H]1CC[C@H]2[C@@H]3CC[C@H]4NC(=O)C=C[C@]4(C)[C@H]3CC[C@]12C` [FINASTERIDE], the “Bacterial Biotransformation” value was “Compound NOT metabolized”.

For `CC(C)c1c(CN(C)C(C)Cc2ccccc2)n(C)n(-c2ccccc2)c1=O` (centres undefined) [FAMPROFAZONE], the “Bacterial Biotransformation” value is “Compound metabolized”.

The next data set in a line: The drug is tested on Blautia luti strain: DSM14534 for biotransformation. The drug concentrations were measured before and after a 12-h incubation by liquid-chromatography-coupled mass spectrometry (LC–MS). It is filed as ADME. Set-up: dose 2 uM, timepoint 0 vs 12 hours. The following applies: 2 µM.
In the case of `CC(C)(C)NC(=O)[C@H]1CC[C@H]2[C@@H]3CC[C@H]4NC(=O)C=C[C@]4(C)[C@H]3CC[C@]12C` [FINASTERIDE], the “Bacterial Biotransformation” value is on record as “Compound NOT metabolized”.

On to `CC(C)c1c(CN(C)C(C)Cc2ccccc2)n(C)n(-c2ccccc2)c1=O` (centres undefined) [FAMPROFAZONE], for which the “Bacterial Biotransformation” value was “Compound NOT metabolized”.

The nature of the next data set: The drug is tested on Enterobacter cancerogenus strain: ATCC35316 for biotransformation. The drug concentrations were measured before and after a 12-h incubation by liquid-chromatography-coupled mass spectrometry (LC–MS). The following applies: 2 µM.
For `CC(C)(C)NC(=O)[C@H]1CC[C@H]2[C@@H]3CC[C@H]4NC(=O)C=C[C@]4(C)[C@H]3CC[C@]12C` [FINASTERIDE], the “Bacterial Biotransformation” value was “Compound NOT metabolized”.

The nature of another data set: The drug is tested on Ruminococcus torques strain: ATCC27756 for biotransformation. The drug concentrations were measured before and after a 12-h incubation by liquid-chromatography-coupled mass spectrometry (LC–MS). On the set-up: dose 2 uM, timepoint 0 vs 12 hours. Conditions: 2 µM. It is filed as ADME.
`CC(C)(C)NC(=O)[C@H]1CC[C@H]2[C@@H]3CC[C@H]4NC(=O)C=C[C@]4(C)[C@H]3CC[C@]12C` [FINASTERIDE]: the “Bacterial Biotransformation” value is reported as “Compound NOT metabolized”.

Turning to `CC(C)c1c(CN(C)C(C)Cc2ccccc2)n(C)n(-c2ccccc2)c1=O` (centres undefined) [FAMPROFAZONE], the “Bacterial Biotransformation” value is recorded as “Compound NOT metabolized”.

Another data set can be described thus: The drug is tested on Parabacteroides merdae strain: ATCC43184 for biotransformation. The drug concentrations were measured before and after a 12-h incubation by liquid-chromatography-coupled mass spectrometry (LC–MS). The following applies: 2 µM.
With `CC(C)(C)NC(=O)[C@H]1CC[C@H]2[C@@H]3CC[C@H]4NC(=O)C=C[C@]4(C)[C@H]3CC[C@]12C` [FINASTERIDE], the “Bacterial Biotransformation” value is on record as “Compound NOT metabolized”.

Consider `CC(C)c1c(CN(C)C(C)Cc2ccccc2)n(C)n(-c2ccccc2)c1=O` (centres undefined) [FAMPROFAZONE], for which the “Bacterial Biotransformation” value is on record as “Compound metabolized”.

A short description of a further data set: The drug is tested on Eubacterium rectale strain: ATCC33656 for biotransformation. The drug concentrations were measured before and after a 12-h incubation by liquid-chromatography-coupled mass spectrometry (LC–MS). Conditions: agathobacter rectalis, 2 µM.
For the compound `CC(C)(C)NC(=O)[C@H]1CC[C@H]2[C@@H]3CC[C@H]4NC(=O)C=C[C@]4(C)[C@H]3CC[C@]12C` [FINASTERIDE], the “Bacterial Biotransformation” value is recorded as “Compound NOT metabolized”.

Take `CC(C)c1c(CN(C)C(C)Cc2ccccc2)n(C)n(-c2ccccc2)c1=O` (centres undefined) [FAMPROFAZONE]: the “Bacterial Biotransformation” value was “Compound NOT metabolized”.

A further data set is described as follows: The drug is tested on Bacteroides ovatus strain: ATCC8483 for biotransformation. The drug concentrations were measured before and after a 12-h incubation by liquid-chromatography-coupled mass spectrometry (LC–MS). Conditions: 2 µM.
In the case of `CC(C)(C)NC(=O)[C@H]1CC[C@H]2[C@@H]3CC[C@H]4NC(=O)C=C[C@]4(C)[C@H]3CC[C@]12C` [FINASTERIDE], the “Bacterial Biotransformation” value is listed as “Compound NOT metabolized”.

For `CC(C)c1c(CN(C)C(C)Cc2ccccc2)n(C)n(-c2ccccc2)c1=O` (centres undefined) [FAMPROFAZONE], the “Bacterial Biotransformation” value is reported as “Compound metabolized”.

A further data set is described as follows: The drug is tested on Bacteroides fragilis strain: HMW610 for biotransformation. The drug concentrations were measured before and after a 12-h incubation by liquid-chromatography-coupled mass spectrometry (LC–MS). Conditions: 2 µM.
In the case of `CC(C)(C)NC(=O)[C@H]1CC[C@H]2[C@@H]3CC[C@H]4NC(=O)C=C[C@]4(C)[C@H]3CC[C@]12C` [FINASTERIDE], the “Bacterial Biotransformation” value is reported as “Compound metabolized”.

With `CC(C)c1c(CN(C)C(C)Cc2ccccc2)n(C)n(-c2ccccc2)c1=O` (centres undefined) [FAMPROFAZONE], the “Bacterial Biotransformation” value is “Compound metabolized”.

For the next data set the following is noted: enterocloster bolteae, 12 h, 2 µM.
Description: The drug is tested on Clostridium bolteae strain: ATCCBAA-613 for biotransformation. The drug concentrations were measured before and after a 12-h incubation by liquid-chromatography-coupled mass spectrometry (LC–MS)
`CC(C)(C)NC(=O)[C@H]1CC[C@H]2[C@@H]3CC[C@H]4NC(=O)C=C[C@]4(C)[C@H]3CC[C@]12C` [FINASTERIDE]: the “Bacterial Biotransformation” value is given as “Compound NOT metabolized”.

Turning to `CC(C)c1c(CN(C)C(C)Cc2ccccc2)n(C)n(-c2ccccc2)c1=O` (centres undefined) [FAMPROFAZONE], the “Bacterial Biotransformation” value is reported as “Compound metabolized”.

The next data set in a line: The drug is tested on Bacteroides pectinophilus strain: ATCC43243 for biotransformation. The drug concentrations were measured before and after a 12-h incubation by liquid-chromatography-coupled mass spectrometry (LC–MS). The following applies: 2 µM.
Take `CC(C)(C)NC(=O)[C@H]1CC[C@H]2[C@@H]3CC[C@H]4NC(=O)C=C[C@]4(C)[C@H]3CC[C@]12C` [FINASTERIDE]: the “Bacterial Biotransformation” value is on record as “Compound NOT metabolized”.

As to `CC(C)c1c(CN(C)C(C)Cc2ccccc2)n(C)n(-c2ccccc2)c1=O` (centres undefined) [FAMPROFAZONE], the “Bacterial Biotransformation” value was “Compound NOT metabolized”.

The next data set in a line: The drug is tested on Dorea formicigenerans strain: ATCC27755 for biotransformation. The drug concentrations were measured before and after a 12-h incubation by liquid-chromatography-coupled mass spectrometry (LC–MS). Conditions: 2 µM.
On to `CC(C)(C)NC(=O)[C@H]1CC[C@H]2[C@@H]3CC[C@H]4NC(=O)C=C[C@]4(C)[C@H]3CC[C@]12C` [FINASTERIDE], for which the “Bacterial Biotransformation” value is reported as “Compound NOT metabolized”.

In the case of `CC(C)c1c(CN(C)C(C)Cc2ccccc2)n(C)n(-c2ccccc2)c1=O` (centres undefined) [FAMPROFAZONE], the “Bacterial Biotransformation” value is “Compound metabolized”.

The next data set in a line: The drug is tested on Coprococcus comes strain: ATCC27758 for biotransformation. The drug concentrations were measured before and after a 12-h incubation by liquid-chromatography-coupled mass spectrometry (LC–MS). It counts as ADME. On the set-up: dose 2 uM, timepoint 0 vs 12 hours. The following applies: 2 µM.
`CC(C)(C)NC(=O)[C@H]1CC[C@H]2[C@@H]3CC[C@H]4NC(=O)C=C[C@]4(C)[C@H]3CC[C@]12C` [FINASTERIDE]: the “Bacterial Biotransformation” value is listed as “Compound NOT metabolized”.

Regarding `CC(C)c1c(CN(C)C(C)Cc2ccccc2)n(C)n(-c2ccccc2)c1=O` (centres undefined) [FAMPROFAZONE], the “Bacterial Biotransformation” value is given as “Compound NOT metabolized”.

A further data set in a line: The drug is tested on Bacteroides fragilis strain: ATCC43859 for biotransformation. The drug concentrations were measured before and after a 12-h incubation by liquid-chromatography-coupled mass spectrometry (LC–MS). Conditions: 2 µM.
Regarding `CC(C)(C)NC(=O)[C@H]1CC[C@H]2[C@@H]3CC[C@H]4NC(=O)C=C[C@]4(C)[C@H]3CC[C@]12C` [FINASTERIDE], the “Bacterial Biotransformation” value is recorded as “Compound metabolized”.

A short description of the next data set: The drug is tested on Subdoligranulum variabile strain: DSM15176 for biotransformation. The drug concentrations were measured before and after a 12-h incubation by liquid-chromatography-coupled mass spectrometry (LC–MS). The following applies: 2 µM.
Turning to `CC(C)c1c(CN(C)C(C)Cc2ccccc2)n(C)n(-c2ccccc2)c1=O` (centres undefined) [FAMPROFAZONE], the “Bacterial Biotransformation” value is given as “Compound metabolized”.

The nature of a further data set: The drug is tested on Edwardsiella tarda strain: ATCC23685 for biotransformation. The drug concentrations were measured before and after a 12-h incubation by liquid-chromatography-coupled mass spectrometry (LC–MS). Conditions: 2 µM.
`CC(C)(C)NC(=O)[C@H]1CC[C@H]2[C@@H]3CC[C@H]4NC(=O)C=C[C@]4(C)[C@H]3CC[C@]12C` [FINASTERIDE]: the “Bacterial Biotransformation” value is listed as “Compound NOT metabolized”.

For the compound `CC(C)c1c(CN(C)C(C)Cc2ccccc2)n(C)n(-c2ccccc2)c1=O` (centres undefined) [FAMPROFAZONE], the “Bacterial Biotransformation” value is reported as “Compound metabolized”.

A short description of another data set: The drug is tested on Alistipes indistinctus strain: DSM22520 for biotransformation. The drug concentrations were measured before and after a 12-h incubation by liquid-chromatography-coupled mass spectrometry (LC–MS). The following applies: 2 µM.
Turning to `CC(C)(C)NC(=O)[C@H]1CC[C@H]2[C@@H]3CC[C@H]4NC(=O)C=C[C@]4(C)[C@H]3CC[C@]12C` [FINASTERIDE], the “Bacterial Biotransformation” value is on record as “Compound NOT metabolized”.

As to `CC(C)c1c(CN(C)C(C)Cc2ccccc2)n(C)n(-c2ccccc2)c1=O` (centres undefined) [FAMPROFAZONE], the “Bacterial Biotransformation” value is “Compound NOT metabolized”.

The next data set can be described thus: The drug is tested on Clostridium symbiosum strain: ATCC14940 for biotransformation. The drug concentrations were measured before and after a 12-h incubation by liquid-chromatography-coupled mass spectrometry (LC–MS). The following applies: 2 µM.
Regarding `CC(C)(C)NC(=O)[C@H]1CC[C@H]2[C@@H]3CC[C@H]4NC(=O)C=C[C@]4(C)[C@H]3CC[C@]12C` [FINASTERIDE], the “Bacterial Biotransformation” value is recorded as “Compound NOT metabolized”.

With `CC(C)c1c(CN(C)C(C)Cc2ccccc2)n(C)n(-c2ccccc2)c1=O` (centres undefined) [FAMPROFAZONE], the “Bacterial Biotransformation” value is “Compound NOT metabolized”.
